Source: patent publication US10364247B2, “Preparation and use of novel protein kinase inhibitors” (Ruijin Hospital Affiliated to Shanghai Jiao Tong University …, priority 2015, dated 2019)

Assays:
[1] = biological target: ABL1(Q252H)-phosphorylated (Homo sapiens, UniProt P00519, Q252H); test: KINOMEscan competition binding; details: read-out: Percent Control
Description: (§1) KINOMEscan™ is based on a competition binding assay that quantitatively measures the ability of a compound to compete with an immobilized, active-site directed ligand (Fabian et al. (2005) Nat. Biotechnol. 23, 329; Karaman et al. (2008) Nat. Biotechnol. 26, 127). The compound was screened at 10 μM, and results for primary screen binding interactions are reported as ‘% Ctrl’, where lower numbers indicate stronger hits. The results for kinases targets with a % Ctrl less than 30 can be seen in Table 2.

[2] = biological target: ABL1(T315I)-nonphosphorylated (Homo sapiens, UniProt P00519, T315I); test: KINOMEscan competition binding; details: read-out: Percent Control
Description: as §1

BRAF(V600E) = biological target: T1, BRAF(V600E) (Homo sapiens, UniProt P15056, V600E); test: KINOMEscan competition binding; details: read-out: Percent Control
T1 construct: purchased KINOMEscan (panel service)
Description: as §1

CTK = CTK (Homo sapiens, UniProt P42679); test: KINOMEscan competition binding; details: CTK (Entrez MATK), read-out: Percent Control
Description: as §1

EPHB1 = biological target: T2, EPHB1 (Homo sapiens, UniProt P54762); test: KINOMEscan competition binding; details: read-out: Percent Control
T2 construct: purchased KINOMEscan (panel service)
Description: as §1

EPHB4 = EPHB4 (Homo sapiens, UniProt P54760); test: KINOMEscan competition binding; details: read-out: Percent Control
Description: as §1

FAK = FAK (Homo sapiens, UniProt Q05397); test: KINOMEscan competition binding; details: FAK (Entrez PTK2), read-out: Percent Control
Description: as §1

FLT1 = FLT1 (Homo sapiens, UniProt P17948); test: KINOMEscan competition binding; details: read-out: Percent Control
Description: as §1

FLT3(N841I) = FLT3(N841I) (Homo sapiens, UniProt P36888, N841I); test: KINOMEscan competition binding; details: read-out: Percent Control
Description: as §1

FLT4 = FLT4 (Homo sapiens, UniProt P35916); test: KINOMEscan competition binding; details: read-out: Percent Control
Description: as §1

IKK-beta = biological target: T3, IKK-beta (Homo sapiens, UniProt O14920); test: KINOMEscan competition binding; details: IKK-beta (Entrez IKBKB), read-out: Percent Control
T3 construct: purchased KINOMEscan (screening service)
Description: as §1

JNK2 = JNK2 (Homo sapiens, UniProt P45984); test: KINOMEscan competition binding; details: JNK2 (Entrez MAPK9), read-out: Percent Control
Description: as §1

LTK = biological target: T4, LTK (Homo sapiens, UniProt P29376); test: KINOMEscan competition binding; details: read-out: Percent Control
T4 construct: purchased KINOMEscan (screening platform)
Description: as §1

MERTK = biological target: T5, MERTK (Homo sapiens, UniProt Q12866); test: KINOMEscan competition binding; details: read-out: Percent Control
T5 construct: purchased KINOMEscan (screening service)
Description: as §1

NEK4 = biological target: T6, NEK4 (Homo sapiens, UniProt P51957); test: KINOMEscan competition binding; details: read-out: Percent Control
T6 construct: purchased KINOMEscan (screening platform)
Description: as §1

PDGFRA = PDGFRA (Homo sapiens, UniProt P16234); test: KINOMEscan competition binding; details: read-out: Percent Control
Description: as §1

PRKCQ = biological target: T7, PRKCQ (Homo sapiens, UniProt Q04759); test: KINOMEscan competition binding; details: read-out: Percent Control
T7 construct: purchased KINOMEscan (screening platform)
Description: as §1

SRMS = SRMS (Homo sapiens, UniProt Q9H3Y6); test: KINOMEscan competition binding; details: read-out: Percent Control
Description: as §1

TIE2 = TIE2 (Homo sapiens, UniProt Q02763); test: KINOMEscan competition binding; details: TIE2 (Entrez TEK)
Description: as §1

TNK2 = TNK2 (Homo sapiens, UniProt Q07912); test: KINOMEscan competition binding; details: read-out: Percent Control
Description: as §1

VEGFR2 = VEGFR2 (Homo sapiens, UniProt P35968); test: KINOMEscan competition binding; details: VEGFR2 (Entrez KDR), read-out: Percent Control
Description: as §1

YSK4 = YSK4 (Homo sapiens, UniProt Q56UN5); test: KINOMEscan competition binding; details: read-out: Percent Control
Description: as §1

BaF3-NRASD12 = test: Oncogenic RAS dependent cell proliferation (CellTiter Glo); format: cell-based, murine; details: Mus musculus, BaF3-NRASD12 cells, 48 hours, read-out: NRas-BaF3 IC50
Summary of the method: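 BaF/3 cells transformed with NRASD12 or KRASD12, plus parental BaF/3, seeded at 5000 cells/well. Viability read by CellTiter-Glo luminescence, reagent diluted 1:4 in PBS, with vehicle and cell-free background controls.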

CML mice = test: Mouse CML model, Kaplan-Meier survival; format: in vivo; details: 10 mg/kg IA-9 by oral gavage twice a day vs vehicle and 50 mg/kg imatinib; FIG. 2
Description: The number (n) of mice treated in each group was indicated.
The activity of IA-9 to treat leukemia was tested in a mouse CML model as described ^4. Bone marrow cells from 5-fluorouracil (5-FU)-treated male BALB/c donor mice 5 days before were infected at a concentration of 1×10^6 cells/mL for 24 hours in a cocktail consisting of DMEM, 15% FCS, 5% WEHI-conditioned medium, 50% viral supernatant, 3 μg/mL polybrene, 2 mmol/L L-glutamine, PSA, 7 ng/mL IL-3, 12 ng/mL IL-6 and 56 ng/mL stem cell factor (SCF; R&D System). The infection was repeated once with freshly made retrovirus-containing cocktail as described above. The infected bone marrow cells were then washed once with phosphate-buffered saline and were injected into lethally irradiated (2 doses of 450 rads each dose administered 4 hours apart) syngeneic mice (female BALB/c; 6 to 8 weeks old) through the tail vein at 4×10^5 cells per mouse. Starting at […] bone marrow transplantation, the recipient mice were treated with vehicle (10% 1-methyl-2-pyrrolidinone:90% PEG-300), 50 mg/kg imatinib or 10 mg/kg IA-9 by oral gavage twice a day.

MV-4-11 = test: Proliferation of FLT3-ITD-driven human AML cells; format: cell-based; details: compared with Dasatinib; FIG. 5B
Description: A. Dose response curve of IA-9 in treating ITD cells is presented. ITD cells in the presence (ITD+) or absence of IL-3 (ITD−) were treated with 10 μM and 3-fold dilution series of IA-9. B. Dose response curve of IA-9 in treating MV-4-11 cells is shown. […].

JNK2, sequence (P45984 whole entry): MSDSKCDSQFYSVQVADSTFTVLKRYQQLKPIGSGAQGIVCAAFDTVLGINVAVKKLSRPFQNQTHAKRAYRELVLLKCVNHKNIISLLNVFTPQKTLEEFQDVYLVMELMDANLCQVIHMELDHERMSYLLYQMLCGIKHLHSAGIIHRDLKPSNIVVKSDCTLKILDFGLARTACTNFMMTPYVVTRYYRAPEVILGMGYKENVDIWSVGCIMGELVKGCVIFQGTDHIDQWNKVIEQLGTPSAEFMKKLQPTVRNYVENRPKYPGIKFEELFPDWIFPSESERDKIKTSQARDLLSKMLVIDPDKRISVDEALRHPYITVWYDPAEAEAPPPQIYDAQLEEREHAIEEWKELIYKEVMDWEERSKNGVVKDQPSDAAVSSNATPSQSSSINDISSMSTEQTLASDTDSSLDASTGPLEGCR
FLT4, sequence (P35916 25-1363): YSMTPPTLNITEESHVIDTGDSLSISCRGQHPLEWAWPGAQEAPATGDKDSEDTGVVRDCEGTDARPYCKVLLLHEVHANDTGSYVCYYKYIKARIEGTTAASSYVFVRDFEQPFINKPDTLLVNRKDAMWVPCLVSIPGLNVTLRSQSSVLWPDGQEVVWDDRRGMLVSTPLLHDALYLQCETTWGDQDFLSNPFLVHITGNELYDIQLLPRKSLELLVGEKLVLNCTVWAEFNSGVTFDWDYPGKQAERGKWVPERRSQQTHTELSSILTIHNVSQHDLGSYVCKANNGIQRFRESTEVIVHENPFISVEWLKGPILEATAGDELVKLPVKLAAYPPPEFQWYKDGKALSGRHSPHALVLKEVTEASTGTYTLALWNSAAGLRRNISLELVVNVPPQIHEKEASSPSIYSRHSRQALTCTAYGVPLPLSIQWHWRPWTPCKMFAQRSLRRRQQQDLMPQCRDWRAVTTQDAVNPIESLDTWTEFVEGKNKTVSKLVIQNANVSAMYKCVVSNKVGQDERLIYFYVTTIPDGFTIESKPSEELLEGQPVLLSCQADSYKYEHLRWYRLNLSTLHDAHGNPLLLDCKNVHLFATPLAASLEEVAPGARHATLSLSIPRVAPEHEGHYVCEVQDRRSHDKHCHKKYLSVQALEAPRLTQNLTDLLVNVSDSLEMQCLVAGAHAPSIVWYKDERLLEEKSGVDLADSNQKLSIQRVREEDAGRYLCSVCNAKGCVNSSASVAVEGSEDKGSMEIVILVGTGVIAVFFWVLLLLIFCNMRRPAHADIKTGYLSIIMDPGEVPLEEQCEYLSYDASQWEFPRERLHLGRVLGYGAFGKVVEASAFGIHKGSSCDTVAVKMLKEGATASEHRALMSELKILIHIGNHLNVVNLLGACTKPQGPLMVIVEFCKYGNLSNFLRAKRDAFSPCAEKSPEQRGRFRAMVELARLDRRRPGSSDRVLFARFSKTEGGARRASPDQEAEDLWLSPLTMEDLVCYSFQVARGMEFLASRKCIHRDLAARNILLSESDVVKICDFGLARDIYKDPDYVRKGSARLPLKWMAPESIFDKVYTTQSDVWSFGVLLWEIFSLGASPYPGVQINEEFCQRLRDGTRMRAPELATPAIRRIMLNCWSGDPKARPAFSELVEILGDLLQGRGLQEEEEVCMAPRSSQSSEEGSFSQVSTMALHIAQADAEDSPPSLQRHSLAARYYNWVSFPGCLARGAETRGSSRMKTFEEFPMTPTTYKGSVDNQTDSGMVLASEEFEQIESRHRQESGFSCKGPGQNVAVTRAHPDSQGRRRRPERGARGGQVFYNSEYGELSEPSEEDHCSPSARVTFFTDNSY
T6 sequence (P51957 whole entry): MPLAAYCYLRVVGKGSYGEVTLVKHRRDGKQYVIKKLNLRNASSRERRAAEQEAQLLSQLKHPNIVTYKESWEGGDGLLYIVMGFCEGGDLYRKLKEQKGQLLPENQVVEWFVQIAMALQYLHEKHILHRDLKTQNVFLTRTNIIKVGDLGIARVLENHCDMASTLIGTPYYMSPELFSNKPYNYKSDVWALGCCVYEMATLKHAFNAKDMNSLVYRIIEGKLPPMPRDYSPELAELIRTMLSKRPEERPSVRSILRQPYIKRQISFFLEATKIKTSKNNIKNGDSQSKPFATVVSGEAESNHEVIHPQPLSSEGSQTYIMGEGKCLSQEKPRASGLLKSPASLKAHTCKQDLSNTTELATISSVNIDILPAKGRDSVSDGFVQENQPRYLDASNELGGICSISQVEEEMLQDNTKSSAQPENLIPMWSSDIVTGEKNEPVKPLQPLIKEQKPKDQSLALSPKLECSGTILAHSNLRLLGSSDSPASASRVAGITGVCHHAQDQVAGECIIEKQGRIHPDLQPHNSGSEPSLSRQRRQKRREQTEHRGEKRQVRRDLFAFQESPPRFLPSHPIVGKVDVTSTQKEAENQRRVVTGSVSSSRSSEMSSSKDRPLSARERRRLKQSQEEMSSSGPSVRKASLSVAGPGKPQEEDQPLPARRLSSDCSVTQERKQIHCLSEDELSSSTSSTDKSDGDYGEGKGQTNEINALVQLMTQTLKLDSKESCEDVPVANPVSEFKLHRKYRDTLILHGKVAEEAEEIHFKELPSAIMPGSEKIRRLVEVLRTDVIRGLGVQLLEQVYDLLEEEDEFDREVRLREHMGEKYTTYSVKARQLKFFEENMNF
T2 sequence (P54762 18-984): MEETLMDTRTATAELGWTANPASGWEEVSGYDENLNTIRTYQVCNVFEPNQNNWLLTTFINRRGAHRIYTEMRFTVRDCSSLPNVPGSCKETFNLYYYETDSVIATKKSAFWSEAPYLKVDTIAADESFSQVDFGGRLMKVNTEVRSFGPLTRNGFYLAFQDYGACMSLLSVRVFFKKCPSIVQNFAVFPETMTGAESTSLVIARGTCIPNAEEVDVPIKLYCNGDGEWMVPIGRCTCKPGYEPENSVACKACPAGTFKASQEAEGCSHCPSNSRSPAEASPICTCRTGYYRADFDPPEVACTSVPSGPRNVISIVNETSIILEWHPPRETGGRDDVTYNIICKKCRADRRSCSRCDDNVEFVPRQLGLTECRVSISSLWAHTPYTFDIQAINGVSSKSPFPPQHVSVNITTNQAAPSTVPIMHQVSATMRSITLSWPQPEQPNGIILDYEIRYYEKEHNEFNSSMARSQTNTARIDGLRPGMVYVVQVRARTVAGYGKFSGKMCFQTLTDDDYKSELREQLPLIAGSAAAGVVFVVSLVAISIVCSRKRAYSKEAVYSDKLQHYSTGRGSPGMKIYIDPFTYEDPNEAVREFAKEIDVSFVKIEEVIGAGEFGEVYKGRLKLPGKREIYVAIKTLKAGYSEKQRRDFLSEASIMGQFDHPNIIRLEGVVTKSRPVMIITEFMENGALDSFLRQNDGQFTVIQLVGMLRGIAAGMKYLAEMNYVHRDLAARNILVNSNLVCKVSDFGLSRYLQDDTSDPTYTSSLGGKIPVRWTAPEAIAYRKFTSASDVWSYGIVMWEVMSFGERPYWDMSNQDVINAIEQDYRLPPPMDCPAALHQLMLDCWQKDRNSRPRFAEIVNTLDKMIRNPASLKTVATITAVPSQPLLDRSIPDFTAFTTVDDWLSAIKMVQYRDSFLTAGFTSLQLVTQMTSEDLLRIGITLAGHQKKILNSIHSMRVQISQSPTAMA
FLT1, sequence (P17948 27-1338): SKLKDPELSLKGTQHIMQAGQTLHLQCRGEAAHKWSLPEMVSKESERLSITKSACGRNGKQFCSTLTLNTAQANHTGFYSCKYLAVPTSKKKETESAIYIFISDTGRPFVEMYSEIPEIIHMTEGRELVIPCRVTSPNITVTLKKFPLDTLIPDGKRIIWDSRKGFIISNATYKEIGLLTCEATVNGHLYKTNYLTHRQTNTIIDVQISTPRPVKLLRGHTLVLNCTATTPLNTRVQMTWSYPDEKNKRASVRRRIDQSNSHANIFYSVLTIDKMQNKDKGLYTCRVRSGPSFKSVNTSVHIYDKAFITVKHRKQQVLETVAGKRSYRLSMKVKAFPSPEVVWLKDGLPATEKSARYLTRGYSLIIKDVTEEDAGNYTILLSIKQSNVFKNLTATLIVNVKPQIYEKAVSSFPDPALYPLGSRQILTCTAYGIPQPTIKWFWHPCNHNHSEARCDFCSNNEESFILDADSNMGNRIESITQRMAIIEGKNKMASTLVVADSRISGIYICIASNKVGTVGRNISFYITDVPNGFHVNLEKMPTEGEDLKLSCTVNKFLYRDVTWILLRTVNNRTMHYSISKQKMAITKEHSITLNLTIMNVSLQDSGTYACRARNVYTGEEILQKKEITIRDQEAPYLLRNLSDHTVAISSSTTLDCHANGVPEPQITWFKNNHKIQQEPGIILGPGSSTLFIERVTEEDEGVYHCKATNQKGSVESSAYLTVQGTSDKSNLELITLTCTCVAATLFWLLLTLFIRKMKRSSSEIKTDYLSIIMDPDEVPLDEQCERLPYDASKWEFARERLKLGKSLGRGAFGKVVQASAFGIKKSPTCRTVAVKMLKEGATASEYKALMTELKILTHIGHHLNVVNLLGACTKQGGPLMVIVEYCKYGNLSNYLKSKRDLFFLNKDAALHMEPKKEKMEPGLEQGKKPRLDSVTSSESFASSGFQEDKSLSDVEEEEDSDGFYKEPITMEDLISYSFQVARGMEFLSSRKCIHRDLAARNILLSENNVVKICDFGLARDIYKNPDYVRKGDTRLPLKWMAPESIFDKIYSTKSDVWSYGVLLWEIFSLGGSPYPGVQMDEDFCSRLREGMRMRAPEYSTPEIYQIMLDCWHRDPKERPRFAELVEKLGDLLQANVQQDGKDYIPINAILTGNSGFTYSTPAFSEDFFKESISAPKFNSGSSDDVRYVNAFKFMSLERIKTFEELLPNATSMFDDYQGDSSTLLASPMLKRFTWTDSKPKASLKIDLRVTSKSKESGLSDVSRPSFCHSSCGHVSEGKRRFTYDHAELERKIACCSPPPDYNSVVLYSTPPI

Cc1ccc(Nc2ncc3c(n2)N(C)CN(c2cc(NC(=O)c4cccc(C(F)(F)F)c4)ccc2C)C3)cn1 [IA-9, N-(4-methyl-3-(1-methyl-7-((6-methylpyridin-3-yl)amino)-1,4-dihydropyrimido[4,5-d]pyrimidin-3(2H)-yl)phenyl)-3-(trifluoromethyl)benzamide]
remaining binding at 10 µM [1]: 0.2% | remaining binding at 10 µM [2]: 0% | remaining binding at 10 µM (BRAF(V600E)): 0.1% | remaining binding at 10 µM (CTK): 3.4% | remaining binding at 10 µM (EPHB1): 0.15% | remaining binding at 10 µM (EPHB4): 0% | remaining binding at 10 µM (FAK): 6.6% | remaining binding at 10 µM (FLT1): 0.55% | remaining binding at 10 µM (FLT3(N841I)): 0.55% | remaining binding at 10 µM (FLT4): 0% | remaining binding at 10 µM (IKK-beta): 14% | remaining binding at 10 µM (JNK2): 0.7% | remaining binding at 10 µM (LTK): 22% | remaining binding at 10 µM (MERTK): 7% | remaining binding at 10 µM (NEK4): 30% | remaining binding at 10 µM (PDGFRA): 1.6% | remaining binding at 10 µM (PRKCQ): 25% | remaining binding at 10 µM (SRMS): 0.95% | percent of control binding at 10 µM (TIE2): 0.45% | remaining binding at 10 µM (TNK2): 2.4% | remaining binding at 10 µM (VEGFR2): 2% | remaining binding at 10 µM (YSK4): 0.3% | IC50 (BaF3-NRASD12): 380 nM | anti-leukemia activity (Kaplan-Meier survival) (CML mice): significantly stronger anti-leukemia activity | suppression of growth of MV-4-11 (MV-4-11): much more effectively than did Dasatinib
